Measured values: patent publication US20090209536A1, “AMINOQUINAZOLINE CANNABINOID RECEPTOR MODULATORS FOR TREATMENT OF DISEASE” (KALYPSYS, INC., priority 2007, published 2009)
Like-named read-outs stand apart in the source and are kept apart here.

What was measured:
[1] = target: T1, human cannabinoid receptor type 1 (Homo sapiens, UniProt P21554); assay: Human CB1 Radioligand Binding Assay (basis of selectivity, CB2 vs. CB1); details: CB1: HEK 293 EBNA cells expressing human CB1; CB2: CHO CB2 membranes
T1 construct: purchased Perkin Elmer RBHCB1M; host or cells: HEK 293 EBNA cells
T1 sequence (P21554 whole entry): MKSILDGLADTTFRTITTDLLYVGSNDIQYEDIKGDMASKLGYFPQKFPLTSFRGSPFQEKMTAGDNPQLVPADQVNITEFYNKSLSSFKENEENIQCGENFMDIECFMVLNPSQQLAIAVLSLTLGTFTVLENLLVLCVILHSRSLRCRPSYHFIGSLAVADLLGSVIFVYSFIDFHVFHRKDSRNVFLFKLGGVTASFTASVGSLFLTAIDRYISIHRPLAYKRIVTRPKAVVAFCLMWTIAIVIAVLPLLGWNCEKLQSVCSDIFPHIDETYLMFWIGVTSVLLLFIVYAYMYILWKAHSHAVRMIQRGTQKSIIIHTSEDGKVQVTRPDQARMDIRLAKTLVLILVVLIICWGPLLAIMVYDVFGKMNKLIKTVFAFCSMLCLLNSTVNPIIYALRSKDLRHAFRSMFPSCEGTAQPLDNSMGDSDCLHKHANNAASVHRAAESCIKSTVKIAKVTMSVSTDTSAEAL
Description: 2. Human CB1 Radioligand Binding Assay
The incubation buffer was composed of 50 mM Tris-HCl pH 7.4, 2.5 mM EDTA, 5 mM MgCl2, 5.0 mg/ml fatty acid free BSA and the wash buffer was composed of 50 mM Tris-HCl pH 7.4, 2.5 mM EDTA, 5 mM MgCl2, 0.5 mg/ml fatty acid free BSA.

[2] = target: T2, human cannabinoid receptor type 2 (Homo sapiens, UniProt P34972); assay: Human CB2 Radioligand Binding Assay; details: membranes from stably transfected CHO CB2 cells
T2 construct: expressed in transfected cells; membrane preparation
T2 sequence (P34972 whole entry): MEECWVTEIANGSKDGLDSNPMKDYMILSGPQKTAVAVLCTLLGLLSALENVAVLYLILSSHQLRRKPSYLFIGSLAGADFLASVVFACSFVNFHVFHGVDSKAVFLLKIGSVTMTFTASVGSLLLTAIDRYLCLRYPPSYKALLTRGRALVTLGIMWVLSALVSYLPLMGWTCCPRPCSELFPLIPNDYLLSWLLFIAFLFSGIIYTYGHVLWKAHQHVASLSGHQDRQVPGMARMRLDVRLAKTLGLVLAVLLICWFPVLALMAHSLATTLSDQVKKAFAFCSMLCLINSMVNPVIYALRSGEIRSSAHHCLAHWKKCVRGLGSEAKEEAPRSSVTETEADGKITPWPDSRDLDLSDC
Description: 1. Human CB2 Radioligand Binding Assay
This receptor binding filtration assay measures the receptor-ligand interactions of compounds by measuring ability to compete with a radiolabeled control ligand. Reactions were performed in 96 deep-well plate (Costar 3961) with a final volume of 600 ul. Compounds were added to each well either in single point (10 uM final) or dose-response. Compounds were delivered in DMSO or further diluted in incubation buffer to a final assay DMSO concentration of 1%. Incubation buffer (50 mM Tris-HCl pH 7.4, 2.5 mM EGTA, 5 mM MgCl2, 5.0 mg/ml fatty acid free BSA) was added to each well. Following buffer addition, [^3H] CP-55,940 was added. Tritiated CP-55,940 (Perkin Elmer) was used at the Kd determined from prior saturation binding experiments conducted on each lot of membranes. Membrane preparations from stably transfected CHO CB2 cells were added and the reaction was incubated for 90 minutes at 30° C. Unifilter GF/C filtration plates (Perkin Elmer) were pre-wet with 0.05% polyethylenimine. Samples were transferred to Unifilter plates and separation of unbound radioligand was achieved using a vacuum manifold (Millipore). Following thorough washing with 5 ml/well ice-cold wash buffer (50 mM Tris-HCl pH 7.4, 2.5 mM EGTA, 5 mM MgCl2, 0.5 mg/ml fatty acid free BSA), filterplates were dried completely. Betaplate Scint Scintillation cocktail (25 ul, Perkin Elmer) was applied and plates were read using Microbeta Trilux (Wallac). Data analysis was performed in Spotfire. Activity of the positive control (100 nM CP-55,940) was set as 100% efficacy.
Stable recombinant Human CB2-CHO cell membranes were prepared as follows: Chinese Hamster Ovarian (CHO) cells stably expressing human cannabinoid receptor type 2 were grown to 90% confluence in 15×100 mm culture dishes under puromycin selection (5 ug/ml) Cells were harvested from culture flasks using a cell scraper, were washed once with cold phosphate-buffered saline (calcium and magnesium free) and pelleted by centrifugation at 400 g for 5 min at 4° C. Cell pellet was washed once with cold phosphate-buffered saline and centrifuged again at 400×g for 5 min at 4° C. The pellet was suspended in ice-cold lysis buffer (10 mM Tris-HCl, 0.1 mM EDTA, containing […], pH 7.5) and homogenized in a chilled 7 ml glass dounce homogenizer using 50 strokes. The homogenate was centrifuged at 400 g for 15 min at 4° C. The cloudy supernatant was collected and centrifuged at 41000 g for 30 min at 4° C. The resulting pellet was washed with ice-cold sucrose-free lysis buffer and centrifuged again at 41000 g for 30 min at 4° C. The membrane pellet was suspended in sucrose-free storage buffer (10 mm Tris-HCl, 0.1 mM EDTA, pH 7.5) to a concentration of 2-3 mg protein/ml. Aliquots were flash frozen in liquid nitrogen and stored at −80° C. Concentration was determined using Dc protein assay kit (Bio-Rad).

[3] = competition with [3H] CP-55,940, read-out: CB2 Ligand Binding Asssay EC50
[4] = CB2 Ligand Binding Asssay EC50, competition with [3H] CP-55,940

Selectivity, CB2 vs. CB1 [1]	EC50 [2, 3] [nM]	Structure (SMILES)	EC50 [2, 4] [nM]
− (− indicates ≦ 10−fold)	> 1000	CCOC(=O)N1CCN(c2nc(-c3ccccc3Cl)nc3cc(Cl)ccc23)CC1 [Example 234, Ethyl 4-(7-chloro-2-(2-chlorophenyl)quinazolin-4-yl)piperazine-1-carboxylate]	–
+ (+ indicates > 10−fold)	< 1000	CC(C)(C)c1ccc2c(N3CCCC3)nc(Nc3cccc(Cl)c3)nc2c1 [Example 290, 7-tert-Butyl-N-(3-chlorophenyl)-4-(pyrrolidin-1-yl)quinazolin-2-amine]	–
+ (+ indicates > 10−fold)	< 1000	CCOC(=O)N1CCN(c2nc(-c3ccccc3Cl)nc3ccc(F)cc23)CC1 [Example 269, Ethyl 4-(2-(2-chlorophenyl)-6-fluoroquinazolin-4-yl)piperazine-1-carboxylate]	–
− (− indicates ≦ 10−fold)	< 1000	Fc1ccccc1-c1nc(N2CCCCC2)c2ccccc2n1 [Example 150, 2-(2-Fluorophenyl)-4-piperidin-1-ylquinazoline]	–
− (− indicates ≦ 10−fold)	> 1000	CC(C)(C)c1ccc(-c2nc(Nc3ccccc3Cl)c3ccccc3n2)cc1 [Example 133, 2-(4-tert-Butylphenyl)quinazolin-4-yl 2-chlorophenylamine]	–
+ (+ indicates > 10−fold)	< 1000	CC(C)(C)c1ccc(-c2nc(N3CCCC3)c3ccccc3n2)cc1 [Example 110, 2-(4-tert-Butylphenyl)-4-(pyrrolidin-1-yl)quinazoline]	–
− (− indicates ≦ 10−fold)	< 1000	FC(F)(F)C1CCN(c2nc(-c3ccccc3Cl)nc3ccccc23)CC1 [Example 60, 2-(2-Chlorophenyl)-4-(4-(trifluoromethyl)piperidin-1-yl)quinazoline]	–
− (− indicates ≦ 10−fold)	> 1000	CCN(CC)CCNC(=O)c1sccc1S(=O)(=O)NCc1nc(N2CCCC2)c2ccccc2n1 [Example 9, N-(2-(Diethylamino)ethyl)-3-(N-((4-(pyrrolidin-1-yl)quinazolin-2-yl)methyl)sulfamoyl)thiophene-2-carboxamide]	–
− (− indicates ≦ 10−fold)	> 1000	CN(CCCn1ccnc1)c1nc(-c2ccccc2Cl)nc2ccccc12 [Example 259, N-(3-(1H-Imidazol-1-yl)propyl)-2-(2-chlorophenyl)-N-methylquinazolin-4-amine]	–

Second part, the molecule before the results:

Structure (SMILES)	Selectivity, CB2 vs. CB1 [1]	EC50 [2, 3] [nM]	EC50 [2, 4] [nM]
CN1CCN(c2nc(-c3ccc(Cl)cc3)nc3ccccc23)CC1 [Example 122, 2-(4-Chlorophenyl)-4-(4-methylpiperazin-1-yl)quinazoline]	+ (+ indicates > 10−fold)	< 1000	–
Cc1ccccc1-c1nc(N2CCCCC2)c2ccccc2n1 [Example 187, 4-Piperidin-1-yl-2-o-tolylquinazoline]	− (− indicates ≦ 10−fold)	> 1000	–
FC(F)(F)Oc1ccc2nc(-c3ccccc3Cl)nc(N3CCCC3)c2c1 [Example 182, 2-(2-Chlorophenyl)-4-(pyrrolidin-1-yl)-6-(trifluoromethoxy) quinazoline]	− (− indicates ≦ 10−fold)	–	> 1000
CCc1ccc2nc(-c3ccccc3Cl)nc(N3CCSCC3)c2c1 [Example 174, 4-(2-(2-Chlorophenyl)-6-ethylquinazolin-4-yl)thiomorpholine]	+ (+ indicates > 10−fold)	< 1000	–
CC(=O)N1CCN(c2nc(C(C)c3ccccc3C)nc3ccccc23)CC1 (stereo not shown) [Example 344, 1-(4-(2-(1-o-Tolylethyl)quinazolin-4-yl)piperazin-1-yl)ethanone]	+ (+ indicates > 10−fold)	< 1000	–
Clc1ccccc1-c1nc(N2CCCC2)c2ccccc2n1 [Example 53, 2-(2-Chlorophenyl)-4-(pyrrolidin-1-yl)quinazoline]	+ (+ indicates > 10−fold)	> 1000	–
Clc1ccccc1Nc1nc(C2CCCCC2)nc2ccccc12 [Example 37, N-(2-Chlorophenyl)-2-cyclohexylquinazolin-4-amine]	− (− indicates ≦ 10−fold)	> 1000	–
CC(C)(C)c1ccc2nc(-c3ccccc3Cl)nc(N3CCCC3)c2c1 [Example 171, 6-tert-Butyl-2-(2-chlorophenyl)-4-(pyrrolidin-1-yl)quinazoline]	+ (+ indicates > 10−fold)	< 1000	–
CCN1CCN(c2nc(-c3ccccc3Cl)nc3ccccc23)C(=O)C1 [Example 73, 1-(2-(2-Chlorophenyl)quinazolin-4-yl)-4-ethylpiperazin-2-one]	− (− indicates ≦ 10−fold)	> 1000	–
CCNC(=O)N1CCN(c2nc(-c3ccccc3Cl)nc3ccccc23)CC1 [Example 87, 4-(2-(2-chlorophenyl)quinazolin-4-yl)-N-ethylpiperazine-1-carboxamide]	− (− indicates ≦ 10−fold)	> 1000	–
CCN(CC)C(=O)c1ccc2c(N3CCN(C(C)=O)CC3)nc(-c3ccccc3Cl)nc2c1 [Example 323, 4-(4-Acetylpiperazin-1-yl)-2-(2-chlorophenyl)-N,N-diethylquinazoline-7-carboxamide]	− (− indicates ≦ 10−fold)	> 1000	–
COC(=O)c1ccc2nc(-c3ccccc3Cl)nc(Nc3cccc(OC(F)(F)F)c3)c2c1 [Example 326, Methyl 2-(2-chlorophenyl)-4-(3-(trifluoromethoxy)phenylamino)quinazoline-6-carboxylate]	− (− indicates ≦ 10−fold)	> 1000	–
CCN1CCN(c2nc(-c3ccccc3Cl)nc3ccccc23)CC1 [Example 105, 2-(2-chlorophenyl)-4-(4-ethylpiperazin-1-yl)quinazoline]	+ (+ indicates > 10−fold)	< 1000	–
Clc1ccccc1-c1nc(N2CCCC2)c2c(Cl)cccc2n1 [Example 267, 5-Chloro-2-(2-chlorophenyl)-4-(pyrrolidin-1-yl)quinazoline]	+ (+ indicates > 10−fold)	< 1000	–
CC(C)(C)OC(=O)N1CCN(c2nc(-c3ccccc3Cl)nc3ccccc23)C(=O)C1 [Example 75, tert-Butyl 4-(2-(2-Chlorophenyl)quinazolin-4-yl)-3-oxopiperazine-1-carboxylate]	− (− indicates ≦ 10−fold)	–	> 1000
FC(F)(F)N1CCN(c2nc(-c3ccccc3Cl)nc3ccccc23)CC1 [Example 106, 2-(2-Chlorophenyl)-4-(4-(trifluoromethyl)piperazin-1-yl)quinazoline]	+ (+ indicates > 10−fold)	< 1000	–
CCOC(=O)N1CCN(c2nc(-c3ccccc3F)nc3ccccc23)CC1 [Example 279, Ethyl 4-(2-(2-fluorophenyl)quinazolin-4-yl)piperazine-1-carboxylate]	+ (+ indicates > 10−fold)	< 1000	–
Cc1ccccc1Cc1nc(N2CCCC2)c2ccccc2n1 [Example 341, 2-(2-Methylbenzyl)-4-(pyrrolidin-1-yl)quinazoline]	− (− indicates ≦ 10−fold)	< 1000	–
CN(c1ccccc1Cl)c1nc(-c2ccc(C(C)(C)C)cc2)nc2ccccc12 [Example 134, 2-(4-tert-Butylphenyl)quinazolin-4-yl 2-chlorophenyl-N-methylamine]	− (− indicates ≦ 10−fold)	< 1000	–
CC(C)(C)c1ccc(-c2nc(N3CCOCC3)c3ccccc3n2)cc1 [Example 112, 4-(2-(4-tert-Butylphenyl)quinazolin-4-yl)morpholine]	− (− indicates ≦ 10−fold)	< 1000	–
